In ChEMBL document CHEMBL3822455, “Aryl or heteroaryl substituted aminal derivatives of HCV NS5A inhibitor MK-8742” (Bioorg Med Chem Lett, 2016):
pEC50: −log10 of the molar value.

Columns and labels:
Hepatitis C virus [1] = assay: Antiviral activity against HCV genotype 1a assessed as replicon RNA level measured after 3 days by real-time PCR method; format: functional, organism-based, Hepacivirus hominis; details: subtype 1a, 72 h
Hepatitis C virus [2] = assay: Antiviral activity against HCV genotype 1a harboring NS5A L31V mutant assessed as replicon RNA level measured after 3 days by real-time PCR method; format: functional, organism-based, Hepacivirus hominis; details: subtype 1a, 72 h
Hepatitis C virus [3] = assay: Antiviral activity against HCV genotype 1b assessed as replicon RNA level measured after 3 days by real-time PCR method; format: functional, organism-based, Hepacivirus hominis; details: 72 h
[4] = Half life in Sprague-Dawley rat at 2 mg/kg, iv or 5 mg/kg, po; format: ADME, organism-based; details: in vivo
Hepatitis C virus [5] = assay: Antiviral activity against HCV genotype 3a assessed as replicon RNA level measured after 3 days by real-time PCR method; format: functional, organism-based, Hepacivirus hominis; details: 72 h
[6] = (§1) AUC in Sprague-Dawley rat at 5 mg/kg, po; format: ADME, organism-based; details: Sprague-Dawley, in vivo
Hepatitis C virus [7] = assay: Antiviral activity against HCV genotype 4a assessed as replicon RNA level measured after 3 days by real-time PCR method; format: functional, organism-based, Hepacivirus hominis; details: 72 h
Hepatitis C virus [8] = assay: Antiviral activity against HCV genotype 2a assessed as replicon RNA level measured after 3 days by real-time PCR method; format: functional, organism-based, Hepacivirus hominis; details: 72 h
[9] = (§2) Oral bioavailability in Sprague-Dawley rat at 5 mg/kg; format: ADME, organism-based; details: Sprague-Dawley, in vivo
Hepatitis C virus [10] = assay: Antiviral activity against HCV genotype 2b assessed as replicon RNA level measured after 3 days by real-time PCR method; format: functional, organism-based, Hepacivirus hominis; details: 72 h
[11] = Clearance in Sprague-Dawley rat at 2 mg/kg, iv or 5 mg/kg, po; format: ADME, organism-based; details: in vivo
Hepatitis C virus [12] = assay: Antiviral activity against HCV genotype 1a harboring NS5A Y93H mutant assessed as replicon RNA level measured after 3 days by real-time PCR method; format: functional, organism-based, Hepacivirus hominis; details: subtype 1a, 72 h
Rattus norvegicus [13] = assay: as §1; format: ADME, organism-based; details: in vivo
Rattus norvegicus [14] = assay: as §2; format: ADME, organism-based; details: in vivo
Canis familiaris [15] = assay: Oral bioavailability in beagle dog at 5 mg/kg; format: ADME, organism-based, Canis lupus familiaris; details: in vivo
[16] = Half life in beagle dog at 2 mg/kg, iv or 5 mg/kg, po; format: ADME, organism-based, Canis lupus familiaris; details: in vivo
Canis familiaris [17] = assay: AUC in beagle dog at 5 mg/kg, po; format: ADME, organism-based, Canis lupus familiaris; details: in vivo
Hepatitis C virus [18] = assay: Selectivity ratio of EC50 for HCV genotype 1a harboring NS5A L31V mutant to EC50 for HCV genotype 1a; format: functional, Hepacivirus hominis, subtype 1a
[19] = Selectivity ratio of EC50 for HCV genotype 2b to EC50 for HCV genotype 1a; format: functional
Hepatitis C virus [20] = assay: Selectivity ratio of EC50 for HCV genotype 1a harboring NS5A Y93H mutant to EC50 for HCV genotype 1a; format: functional, Hepacivirus hominis, subtype 1a

Row | SMILES | pEC50 (Hepatitis C virus [1]) | pEC50 (Hepatitis C virus [2]) | pEC50 (Hepatitis C virus [3]) | half-life [4] | pEC50 (Hepatitis C virus [5]) | AUC [6] | pEC50 (Hepatitis C virus [7]) | pEC50 (Hepatitis C virus [8]) | bioavailability [9] | pEC50 (Hepatitis C virus [10]) | clearance [11] | pEC50 (Hepatitis C virus [12]) | AUC (Rattus norvegicus [13]) | F (Rattus norvegicus [14]) | F (Canis familiaris [15]) | half-life [16] | AUC (Canis familiaris [17]) | Ratio EC50 (Hepatitis C virus [18]) | Ratio EC50 [19] | Ratio EC50 (Hepatitis C virus [20])
1 | COC(=O)N[C@H](C(=O)N1CCC[C@H]1c1ncc(-c2ccc3c(c2)OC(c2cccc(F)c2)n2c-3cc3cc(-c4cnc([C@@H]5CCCN5C(=O)[C@@H](NC(=O)OC)C(C)C)[nH]4)ccc32)[nH]1)C(C)C (some centres undefined) | 11.52 | 9.70 | 11.70 | 5.4 h | 10.40 | 1.5 µM·h | 11.22 | 11.40 | 12% | 9.00 | 7 mL/min/kg | 8.40 |  |  |  |  |  |  |  | 
2 | COC(=O)N[C@H](C(=O)N1CCC[C@H]1c1ncc(-c2ccc3c(c2)OC(c2ccc(OC(F)(F)F)cc2)n2c-3cc3cc(-c4cnc([C@@H]5CCCN5C(=O)[C@@H](NC(=O)OC)C(C)C)[nH]4)ccc32)[nH]1)C(C)C (mixture of isomers) | 11.30 | 9.70 | 10.96 | 6.3 h | 10.52 |  | 9.70 | 11.30 |  |  |  | 8.52 | 1.1 µM·h | 7% |  |  |  |  |  | 
3 | COC(=O)N[C@H](C(=O)N1CCC[C@H]1c1ncc(-c2ccc3c(c2)OC(c2cccc(OC)c2)n2c-3cc3cc(-c4cnc([C@@H]5CCCN5C(=O)[C@@H](NC(=O)OC)C(C)C)[nH]4)ccc32)[nH]1)C(C)C (mixture of isomers) | 11.40 | 10.40 | 11.70 | 4.6 h | 10.70 |  | 11.70 | 11.40 |  | 9.40 |  | > 8.70 | 0.52 µM·h | 6% | 34% | 7.9 h | 5 µM·h |  |  | 
4 | COC(=O)N[C@H](C(=O)N1CCC[C@H]1c1ncc(-c2ccc3c(c2)OC(c2cccc(Cl)c2)n2c-3cc3cc(-c4cnc([C@@H]5CCCN5C(=O)[C@@H](NC(=O)OC)C(C)C)[nH]4)ccc32)[nH]1)C(C)C (some centres undefined) | 11.52 | 10.00 | 11.70 | 4.1 h | 10.52 | 1.4 µM·h | 11.70 | 11.00 | 12% | 9.40 | 8 mL/min/kg | 8.52 |  |  |  |  |  |  |  | 
5 | COC(=O)N[C@H](C(=O)N1CCC[C@H]1c1ncc(-c2ccc3c(c2)OC(c2cc(OC)cc(OC)c2)n2c-3cc3cc(-c4cnc([C@@H]5CCCN5C(=O)[C@@H](NC(=O)OC)C(C)C)[nH]4)ccc32)[nH]1)C(C)C (mixture of isomers) | 11.52 | 9.52 | 11.70 |  | 10.70 |  | 11.00 | 11.70 | 0% | 9.70 |  | 9.10 |  |  |  |  |  | 100 | 67 | 267
6 | COC(=O)N[C@H](C(=O)N1CCC[C@H]1c1ncc(-c2ccc3c(c2)OC(c2ccccc2F)n2c-3cc3cc(-c4cnc([C@@H]5CCCN5C(=O)[C@@H](NC(=O)OC)C(C)C)[nH]4)ccc32)[nH]1)C(C)C (some centres undefined) | 11.70 | 9.40 | 11.52 | 4.6 h | 10.00 | 0.67 µM·h | 11.15 | 11.52 | 8% | 8.52 | 12 mL/min/kg | 8.22 |  |  |  |  |  |  |  | 
7 | COC(=O)N[C@H](C(=O)N1CCC[C@H]1c1ncc(-c2ccc3c(c2)OC(c2ccc(Cl)cc2)n2c-3cc3cc(-c4cnc([C@@H]5CCCN5C(=O)[C@@H](NC(=O)OC)C(C)C)[nH]4)ccc32)[nH]1)C(C)C (some centres undefined) | 11.05 | 9.52 | 11.00 | 4.5 h | 10.40 | 0.88 µM·h | 11.00 | 11.30 | 10% |  | 10 mL/min/kg | 8.30 |  |  |  |  |  |  |  | 
8 | COC(=O)N[C@H](C(=O)N1CCC[C@H]1c1ncc(-c2ccc3c(c2)OC(c2cc(F)cc(F)c2)n2c-3cc3cc(-c4cnc([C@@H]5CCCN5C(=O)[C@@H](NC(=O)OC)C(C)C)[nH]4)ccc32)[nH]1)C(C)C (some centres undefined) | 10.96 | 9.52 | 11.00 | 5.1 h | 10.05 | 1.5 µM·h | 11.40 | 10.70 | 15% | 9.30 | 9 mL/min/kg | 8.40 |  |  |  |  |  |  |  | 
9 | CCc1cccc(C2Oc3cc(-c4cnc([C@@H]5CCCN5C(=O)[C@@H](NC(=O)OC)C(C)C)[nH]4)ccc3-c3cc4cc(-c5cnc([C@@H]6CCCN6C(=O)[C@@H](NC(=O)OC)C(C)C)[nH]5)ccc4n32)c1 (mixture of isomers) | 11.70 | 9.29 | 11.70 |  | 9.70 |  | 12.00 | 10.70 |  | 8.52 |  | 8.00 |  |  |  |  |  |  |  | 
10 | COC(=O)N[C@H](C(=O)N1CCC[C@H]1c1ncc(-c2ccc3c(c2)OC(c2cccc(C(N)=O)c2)n2c-3cc3cc(-c4cnc([C@@H]5CCCN5C(=O)[C@@H](NC(=O)OC)C(C)C)[nH]4)ccc32)[nH]1)C(C)C (mixture of isomers) | 10.05 | 8.15 | 11.00 |  | < 9.00 |  | < 9.00 | 9.29 |  | < 7.00 |  | 7.72 |  |  |  |  |  |  |  | 
11 | COC(=O)N[C@H](C(=O)N1CCC[C@H]1c1ncc(-c2ccc3c(c2)OC(c2ccc(OC)cc2)n2c-3cc3cc(-c4cnc([C@@H]5CCCN5C(=O)[C@@H](NC(=O)OC)C(C)C)[nH]4)ccc32)[nH]1)C(C)C (mixture of isomers) | 11.00 | 9.52 | 11.15 |  | 10.15 |  | 11.10 | 11.40 |  | 9.10 |  | 7.82 |  |  |  |  |  |  |  | 
